In patent publication US9346809B2 (LEO PHARMA A/S, priority 2009, dated 2016) one finds EC50 data, which are given here for 19 compounds.

Like-named read-outs stand apart in the source and are kept apart here.

Usually EC50 stands for the concentration giving half of the maximal effect.

Common to all, as to format: biochemical
Experiment [1] has as its target T1, TYK2 (aa 871-1187, catalytic domain, GST-tag) (Homo sapiens, UniProt P29597).
T1 construct: JAK1 (aa 850-1154) and TYK2 (aa 871-1187) are expressed with an N-terminally fused GST-tag; GST (N); purchased Carna Biosciences, Inc; host or cells: baculovirus expression system
T1 sequence (P29597 871-1187): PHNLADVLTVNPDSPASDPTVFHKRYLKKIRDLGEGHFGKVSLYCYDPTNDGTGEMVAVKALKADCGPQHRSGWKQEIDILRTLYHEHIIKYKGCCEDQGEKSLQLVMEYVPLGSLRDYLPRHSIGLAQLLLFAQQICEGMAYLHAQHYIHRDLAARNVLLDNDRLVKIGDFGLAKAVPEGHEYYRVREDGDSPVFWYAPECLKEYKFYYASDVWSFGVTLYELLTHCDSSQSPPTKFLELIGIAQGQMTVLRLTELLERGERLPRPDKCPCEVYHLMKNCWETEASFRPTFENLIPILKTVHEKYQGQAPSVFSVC
As to the kind of experiment: JAK kinase assay (HTRF, phosphorylation of TK substrate-biotin), TYK2. The following applies: ATP at Km (13 μM). A digest of the protocol:
(§1)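 Compound was mixed with TK substrate-biotin (1 μM final), then kinase plus ATP at its Km was added and left 20-30 min at room temperature. Detection mix with EDTA, Streptavidin-XL665 and STK Ab Cryptate stopped the reaction; after overnight dark incubation, HTRF was read and EC50 derived.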

In experiment [2] the target is T2, JAK1 (aa 850-1154, catalytic domain, GST-tag) (Homo sapiens, UniProt P23458).
T2 construct: JAK1 (aa 850-1154) and TYK2 (aa 871-1187) are expressed with an N-terminally fused GST-tag; GST (N); purchased Carna Biosciences, Inc; host or cells: baculovirus expression system
Put plainly: JAK kinase assay (HTRF, phosphorylation of TK substrate-biotin), JAK1. The following applies: ATP at Km (7 μM). A digest of the protocol: as §1
A general note: In TR-FRET formats the signal depends on donor and acceptor labels being close together.

Experiment [3] has as its target T3, JAK2 (catalytic domain, His-tag) (Homo sapiens, UniProt O60674).
T3 construct: All four purified enzymes contain only the catalytic domain; His (N); purchased Carna Biosciences, Inc; host or cells: baculovirus expression system
Put plainly: JAK kinase assay (HTRF, phosphorylation of TK substrate-biotin), JAK2. The following applies: ATP at Km (4 μM). A digest of the protocol:
as §1

Experiment [4] deals with T4, JAK3 (catalytic domain, His-tag) (Homo sapiens, UniProt P52333).
T4 construct: All four purified enzymes contain only the catalytic domain; His (N); purchased Carna Biosciences, Inc; host or cells: baculovirus expression system
As to the kind of experiment: JAK kinase assay (HTRF, phosphorylation of TK substrate-biotin), JAK3. The note with it: ATP at Km (2 μM). Summed up:
as §1

The mark [5] stands for this setting: HTRF assay, read-out: TYK2 kinase inhibitory activity (EC50).
[6] abbreviates: HTRF assay, read-out: JAK1 kinase inhibitory activity (EC50).
[7] abbreviates: HTRF assay, read-out: JAK2 kinase inhibitory activity (EC50).
Setting [8] is: HTRF assay, read-out: JAK3 kinase inhibitory activity (EC50).
[9] abbreviates: read-out: TYK2 kinase inhibitory activity (EC50 indicator).
Where [10] appears, read: read-out: JAK1 kinase inhibitory activity (EC50 indicator).
The mark [11] stands for this setting: read-out: JAK2 kinase inhibitory activity (EC50 indicator).
Setting [12] is: read-out: JAK3 kinase inhibitory activity (EC50 indicator).
Where [13] appears, read: HTRF assay, read-out: TYK2 kinase inhibitory activity (EC50 indicator).
The mark [14] stands for this setting: HTRF assay, read-out: JAK1 kinase inhibitory activity (EC50 indicator).
[15] abbreviates: HTRF assay, read-out: JAK2 kinase inhibitory activity (EC50 indicator).
Where [16] appears, read: HTRF assay, read-out: JAK3 kinase inhibitory activity (EC50 indicator).

T2 sequence (P23458 850-1154): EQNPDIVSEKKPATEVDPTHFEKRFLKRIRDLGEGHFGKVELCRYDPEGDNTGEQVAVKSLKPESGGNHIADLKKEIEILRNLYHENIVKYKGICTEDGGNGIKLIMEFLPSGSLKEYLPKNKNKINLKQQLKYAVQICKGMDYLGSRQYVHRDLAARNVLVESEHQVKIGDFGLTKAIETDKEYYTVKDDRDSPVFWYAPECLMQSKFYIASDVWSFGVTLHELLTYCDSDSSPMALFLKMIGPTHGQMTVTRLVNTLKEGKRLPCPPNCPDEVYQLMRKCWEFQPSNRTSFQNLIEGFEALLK
T3 sequence (O60674 849-1124 limits assumed): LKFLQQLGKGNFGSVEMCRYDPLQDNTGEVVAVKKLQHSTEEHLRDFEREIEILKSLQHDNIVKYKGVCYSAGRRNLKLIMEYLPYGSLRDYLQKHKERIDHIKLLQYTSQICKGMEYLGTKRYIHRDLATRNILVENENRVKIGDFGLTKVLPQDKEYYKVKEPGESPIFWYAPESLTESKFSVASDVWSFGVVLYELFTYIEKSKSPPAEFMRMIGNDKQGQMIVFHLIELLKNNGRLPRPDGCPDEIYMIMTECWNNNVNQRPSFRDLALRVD
T4 sequence (P52333 822-1111 limits assumed): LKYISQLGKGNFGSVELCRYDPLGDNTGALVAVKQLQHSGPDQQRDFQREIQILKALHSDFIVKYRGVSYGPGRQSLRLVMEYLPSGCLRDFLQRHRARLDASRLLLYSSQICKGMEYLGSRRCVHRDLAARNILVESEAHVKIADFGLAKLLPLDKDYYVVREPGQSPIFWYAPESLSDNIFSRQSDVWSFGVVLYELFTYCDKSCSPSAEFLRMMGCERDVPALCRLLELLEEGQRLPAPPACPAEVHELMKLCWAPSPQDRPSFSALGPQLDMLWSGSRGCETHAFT

Consider `N#Cc1ccc(CC(=S)N2CCN(c3ncnc4[nH]ccc34)CC23CC3)cc1` [Example 441, 4-{2-[7-(7H-Pyrrolo[2,3-d]pyrimidin-4-yl)-4,7-diaza-spiro[2.5]oct-4-yl]-2-thioxo-ethyl}-benzonitrile], for which the EC50 in experiment [1] (setting [5]), in experiment [2] (setting [6]), in experiment [3] (setting [7]) and in experiment [4] (setting [8]) was < 0.1 µM throughout.
With `N#Cc1ccc(C(=O)N2CCN(c3ncnc4[nH]ccc34)CC23CC3)cc1` [Example 15, 4-[7-(7H-Pyrrolo[2,3-d]pyrimidin-4-yl)-4,7-diazaspiro[2.5]octane-4-carbonyl]benzonitrile], the EC50 is 0.1 to 0.5 µM in experiment [1] (setting [9]), < 0.1 µM in experiment [2] (setting [10]), < 0.1 µM in experiment [3] (setting [11]) and 0.1 to 0.5 µM in experiment [4] (setting [12]).
As for `O=C(C1Cc2ccccc21)N1CCN(c2ncnc3[nH]ccc23)CC12CC2` (stereo not shown) [Example 125, Bicyclo[4.2.0]octa-1(6),2,4-trien-7-yl-[7-(7H-pyrrolo[2,3-d]pyrimidin-4-yl)-4,7-diaza-spiro[2.5]oct-4-yl]-methanone], the EC50 in experiment [1] (setting [9]) is > 0.5 µM; in experiment [2] (setting [10]), < 0.1 µM; in experiment [3] (setting [11]) it was < 0.1 µM; in experiment [4] (setting [12]) it was 0.1 to 0.5 µM.
As to `O=C(c1ccc(S(=O)(=O)NCc2cccs2)cc1)N1CCN(c2ncnc3[nH]ccc23)CC12CC2` [Example 204, 4-[7-(7H-Pyrrolo[2,3-d]pyrimidin-4-yl)-4,7-diaza-spiro[2.5]octane-4-carbonyl]-N-thiophen-2-ylmethyl-benzenesulfonamide], the EC50 in experiment [1] (setting [9]) is 0.1 to 0.5 µM; in experiment [2] (setting [10]), < 0.1 µM; in experiment [3] (setting [11]), < 0.1 µM; in experiment [4] (setting [12]) it was < 0.1 µM.
With `COc1ccc(C(=O)N2CCN(c3ncnc4[nH]ccc34)CC23CC3)s1` [Example 206, (5-Methoxy-thiophen-2-yl)-[7-(7H-pyrrolo[2,3-d]pyrimidin-4-yl)-4,7-diaza-spiro[2.5]oct-4-yl]-methanone], the EC50 in experiment [1] (setting [13]), in experiment [2] (setting [14]), in experiment [3] (setting [15]) and in experiment [4] (setting [16]) was < 0.1 µM in each case.
Consider `Cc1cc(C(=O)N2CCN(c3ncnc4[nH]ccc34)CC23CC3)ccc1S(N)(=O)=O` [Example 380, 2-Methyl-4-[7-(7H-pyrrolo[2,3-d]pyrimidin-4-yl)-4,7-diaza-spiro[2.5]octane-4-carbonyl]-benzenesulfonamide], for which the EC50 in experiment [1] (setting [13]), in experiment [2] (setting [14]), in experiment [3] (setting [15]) and in experiment [4] (setting [16]) was < 0.1 µM in each case.
Regarding `S=C(NCc1ccccc1)N1CCN(c2ncnc3[nH]ccc23)CC12CC2` [Example 438, 7-(7H-Pyrrolo[2,3-d]pyrimidin-4-yl)-4,7-diaza-spiro[2.5]octane-4-carbothioic acid benzylamide], the EC50 in experiment [1] (setting [5]) is 0.1 to 0.5 µM; in experiment [2] (setting [6]), < 0.1 µM; in experiment [3] (setting [7]), < 0.1 µM; in experiment [4] (setting [8]) it was 0.1 to 0.5 µM.
Consider `N#CC1(C(=O)N2CCN(c3ncnc4[nH]ccc34)CC23CC3)CC1` [Example 165, 1-[7-(7H-Pyrrolo[2,3-d]pyrimidin-4-yl)-4,7-diaza-spiro[2.5]octane-4-carbonyl]-cyclopropanecarbonitrile], for which the EC50 in experiment [1] (setting [9]) was 0.1 to 0.5 µM; in experiment [2] (setting [10]) it was < 0.1 µM; in experiment [3] (setting [11]) it was < 0.1 µM; in experiment [4] (setting [12]) it was < 0.1 µM.
For the compound `COc1cnc2[nH]ccc2c1N1CCN(C(=O)CCCC#N)C2(CC2)C1` [Example 293, 5-[7-(5-Methoxy-1H-pyrrolo[2,3-b]pyridin-4-yl)-4,7-diaza-spiro[2.5]oct-4-yl]-5-oxo-pentanenitrile], the EC50 in experiment [1] (setting [13]) is 0.1 to 0.5 µM; in experiment [2] (setting [14]), < 0.1 µM; in experiment [3] (setting [15]), < 0.1 µM; in experiment [4] (setting [16]), < 0.1 µM.
With `N#CCOc1ccc(C(=O)N2CCN(c3ncnc4[nH]ccc34)CC23CC3)cc1` [Example 68, {4-[7-(7H-Pyrrolo[2,3-d]pyrimidin-4-yl)-4,7-diaza-spiro[2.5]octane-4-carbonyl]-phenoxy}-acetonitrile], the EC50 is 0.1 to 0.5 µM in experiment [1] (setting [9]), < 0.1 µM in experiment [2] (setting [10]), < 0.1 µM in experiment [3] (setting [11]) and 0.1 to 0.5 µM in experiment [4] (setting [12]).
For `Cc1c[nH]c2ncnc(N3CCN(C(=O)c4cnc5ccccc5n4)C4(CC4)C3)c12` [Example 120, [7-(5-Methyl-7H-pyrrolo[2,3-d]pyrimidin-4-yl)-4,7-diaza-spiro[2.5]oct-4-yl]-quinoxalin-2-yl-methanone], the EC50 in experiment [1] (setting [9]), in experiment [2] (setting [10]), in experiment [3] (setting [11]) and in experiment [4] (setting [12]) was > 0.5 µM throughout.
For the compound `Nc1nc(N2CCN(C(=O)c3cnccn3)C3(CC3)C2)c2cc[nH]c2n1` [Example 302, [7-(2-Amino-7H-pyrrolo[2,3-d]pyrimidin-4-yl)-4,7-diaza-spiro[2.5]oct-4-yl]-pyrazin-2-yl-methanone], the EC50 in experiment [1] (setting [13]) is > 0.5 µM; in experiment [2] (setting [14]), 0.1 to 0.5 µM; in experiment [3] (setting [15]), < 0.1 µM; in experiment [4] (setting [16]) it was 0.1 to 0.5 µM.
Turning to `CNS(=O)(=O)c1csc(C(=O)N2CCN(c3ncnc4[nH]ccc34)CC23CC3)c1C` [Example 376, 4-Methyl-5-[7-(7H-pyrrolo[2,3-d]pyrimidin-4-yl)-4,7-diaza-spiro[2.5]octane-4-carbonyl]-thiophene-3-sulfonic acid methylamide], the EC50 in experiment [1] (setting [13]) is 0.1 to 0.5 µM; in experiment [2] (setting [14]), < 0.1 µM; in experiment [3] (setting [15]), < 0.1 µM; in experiment [4] (setting [16]), < 0.1 µM.
For `COc1cc(S(N)(=O)=O)ccc1C(=O)N1CCN(c2ncnc3[nH]ccc23)CC12CC2` [Example 389, 3-Methoxy-4-[7-(7H-pyrrolo[2,3-d]pyrimidin-4-yl)-4,7-diaza-spiro[2.5]octane-4-carbonyl]-benzenesulfonamide], the EC50 is 0.1 to 0.5 µM in experiment [1] (setting [13]), < 0.1 µM in experiment [2] (setting [14]), < 0.1 µM in experiment [3] (setting [15]) and < 0.1 µM in experiment [4] (setting [16]).
Regarding `COc1cnc2[nH]ccc2c1N1CCN(C(=O)c2ccc(-c3ccccc3)s2)C2(CC2)C1` [Example 290, [7-(5-Methoxy-1H-pyrrolo[2,3-b]pyridin-4-yl)-4,7-diaza-spiro[2.5]oct-4-yl]-(5-phenyl-thiophen-2-yl)-methanone], the EC50 in experiment [1] (setting [13]), in experiment [2] (setting [14]), in experiment [3] (setting [15]) and in experiment [4] (setting [16]) was > 0.5 µM in each case.
With `O=C(OC1CCCC1)N1CCN(c2ncnc3[nH]ccc23)CC12CC2` [Example 450, 7-(7H-Pyrrolo[2,3-d]pyrimidin-4-yl)-4,7-diaza-spiro[2.5]octane-4-carboxylic acid cyclopentyl ester], the EC50 in experiment [1] (setting [5]), in experiment [2] (setting [6]), in experiment [3] (setting [7]) and in experiment [4] (setting [8]) was < 0.1 µM in each case.
As for `Cc1sc(C(=O)N2CCN(c3ncnc4[nH]ccc34)CC23CC3)cc1S(N)(=O)=O` [Example 374, 2-Methyl-5-[7-(7H-pyrrolo[2,3-d]pyrimidin-4-yl)-4,7-diaza-spiro[2.5]octane-4-carbonyl]-thiophene-3-sulfonic acid amide], the EC50 in experiment [1] (setting [13]), in experiment [2] (setting [14]), in experiment [3] (setting [15]) and in experiment [4] (setting [16]) was < 0.1 µM throughout.
As to `O=C(c1cccnc1)N1[C@@H]2CC[C@H]1CN(c1ncnc3[nH]ccc13)C2` [Example 57, Pyridin-3-yl-[3-(7H-pyrrolo[2,3-d]pyrimidin-4-yl)-3,8-diazabicyclo[3.2.1]oct-8-yl]methanone], the EC50 in experiment [1] (setting [9]) was > 0.5 µM; in experiment [2] (setting [10]), 0.1 to 0.5 µM; in experiment [3] (setting [11]) it was 0.1 to 0.5 µM; in experiment [4] (setting [12]) it was > 0.5 µM.
Consider `N#Cc1ccc(CS(=O)(=O)N2CCN(c3ncnc4[nH]ccc34)CC23CC3)cc1` [Example 79, 4-[7-(7H-Pyrrolo[2,3-d]pyrimidin-4-yl)-4,7-diaza-spiro[2.5]octane-4-sulfonylmethyl]-benzonitrile], for which the EC50 in experiment [1] (setting [9]) was > 0.5 µM; in experiment [2] (setting [10]), < 0.1 µM; in experiment [3] (setting [11]) it was < 0.1 µM; in experiment [4] (setting [12]), 0.1 to 0.5 µM.
